Measured values from patent EP4647069A1, “DRUGS AND COMPOSITIONS FOR USE IN THE TREATMENT OF RETT SYNDROME” (UNIVERSITA' DEGLI STUDI DI TRIESTE, priority 2024, dated 2025).

Key:
[1] = system: MeCP2-KO mouse hippocampal neurons; assay: Phenotypic neuronal atrophy screening in miniaturized 96-well cultures, treatment DIV 3 to DIV 6 (MAP2/NeuN, NeuriteQuant); type: cell-based; conditions: for total dendritic length (TDL) / terminal branches (EP): individually or in combination; for minimal effective concentration: Mus musculus, Hippocampal neuron, individual drugs, DIV 3 to DIV 6, read-out: minimum effective concentration in the in vitro assays
Experimental: Three morphological parameters were measured: 1) the area of the neuronal cell body (soma), 2) the total dendritic length (TDL), 3) the number of dendritic endpoints (EP).
The Kruskall-Wallis test was also performed in this phase, in order to compare non-parametric data between more than two groups: *p <0.05, **p<0.01, ***p<0.001.
To quantify the effects of the interactions, the same morphological parameters used to test the individual drugs at DIV 6 were measured, namely total dendritic length (TDL) and the number of terminal branches (EP = Endpoints).

[2] = in vivo; cited from earlier work

Row | SMILES | total dendritic length (TDL) ([1]; 1 µM, DIV 3 to DIV 6 (fig. 5A, 5B)) | terminal branches (EP) ([1]; 1 µM, DIV 3 to DIV 6 (fig. 5C, 5D)) | minimal effective concentration [1] [µM] | capabilities to penetrate the blood-brain barrier [2] | half-life [2] [h] | total dendritic length (TDL) ([1]; 0.1 µM, DIV 3 to DIV 6 (fig. 6A, 6B)) | terminal branches (EP) ([1]; 0.1 µM, DIV 3 to DIV 6 (fig. 6C, 6D))
1 | C=C1/C(=C\C=C2/CCC[C@]3(C)[C@@H]([C@H](C)/C=C/[C@@H](O)C4CC4)CC[C@@H]23)C[C@@H](O)C[C@@H]1O [calcipotriene] | no positive effect | no positive effect | 10 | – | – | – | –
2 | Cc1ccc(C(=O)c2cc(O)c(O)c([N+](=O)[O-])c2)cc1 [tolcapone] | – | – | – | excellent | 2.9 | – | –
3 | O=c1[nH]c(=O)n([C@H]2C[C@H](O)[C@@H](CO)O2)cc1I [idoxuridine] | – | – | 10 | – | – | no positive effect | no positive effect
